In US8530489B2 (Vertex Pharmaceuticals Incorporated, priority 2006, dated 2013):

molecular target: PLK1 (Homo sapiens, UniProt P53350); test: PLK1 Inhibition Assay I (radioactive-phosphate incorporation); type: biochemical; conditions: Ki(app); PLK1 Inhibition Assay I or II (table does not say which)
Summary of the method: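 Ki(app) values came from non-linear regression of initial rates after background subtraction, with phosphopeptide measured by phosphocellulose filter binding and scintillation counting. PLK1 at 2 nM was preincubated with compound (typically from 10 μM, 2-fold dilutions) for 10 min, then run 240 min at 25° C with 350 μM [γ-33P]ATP and 450 μM peptide substrate in HEPES pH 7.5 buffer.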

Chain of PLK1 (P53350 whole entry): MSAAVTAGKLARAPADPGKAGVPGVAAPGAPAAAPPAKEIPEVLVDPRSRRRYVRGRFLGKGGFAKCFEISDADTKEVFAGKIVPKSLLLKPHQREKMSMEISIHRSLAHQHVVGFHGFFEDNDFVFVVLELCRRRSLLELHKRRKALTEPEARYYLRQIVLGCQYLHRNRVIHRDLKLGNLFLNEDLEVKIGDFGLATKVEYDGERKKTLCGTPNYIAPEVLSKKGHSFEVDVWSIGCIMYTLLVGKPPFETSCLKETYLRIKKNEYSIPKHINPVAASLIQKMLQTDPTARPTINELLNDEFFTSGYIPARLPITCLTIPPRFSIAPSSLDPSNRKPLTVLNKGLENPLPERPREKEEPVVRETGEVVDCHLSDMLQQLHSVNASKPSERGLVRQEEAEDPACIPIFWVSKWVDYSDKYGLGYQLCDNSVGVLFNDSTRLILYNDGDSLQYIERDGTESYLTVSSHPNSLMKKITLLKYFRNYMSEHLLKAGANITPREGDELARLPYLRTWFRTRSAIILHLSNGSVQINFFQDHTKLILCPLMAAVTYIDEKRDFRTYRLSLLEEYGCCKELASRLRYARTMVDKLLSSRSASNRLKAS

CC(Nc1ncc(C#N)c(-c2c[nH]c3ncc(C(F)(F)F)cc23)n1)C1CN(C(=O)[C@@H](C)O)C1 (stereo partly drawn) [Compound I-222, 2-(1-(1-((R)-2-hydroxypropanoyl)azetidin-3-yl)ethylamino)-4-(5-(trifluoromethyl)-1H-pyrrolo[2,3-b]pyridin-3-yl)pyrimidine-5-carbonitrile] and CC(Nc1ncc(C#N)c(-c2c[nH]c3ncc(C(F)(F)F)cc23)n1)C1CCN(C(=O)CN)CC1 (stereo not shown) [Compound I-188, 2-(1-(1-(2-aminoacetyl)piperidin-4-yl)ethylamino)-4-(5-(trifluoromethyl)-1H-pyrrolo[2,3-b]pyridin-3-yl)pyrimidine-5-carbonitrile] cannot be ordered by Ki: < 3 nM for the first, < 3 nM for the second.

First: C[C@@H](Nc1ncc(C#N)c(-c2c[nH]c3ncc(C(F)(F)F)cc23)n1)c1ccc(N2CCN3CCC[C@@H]3C2)nc1 [Compound I-298, 2-((R)-1-(6-((R)-hexahydropyrrolo[1,2-a]pyrazin-2(1H)-yl)pyridin-3-yl)ethylamino)-4-(5-(trifluoromethyl)-1H-pyrrolo[2,3-b]pyridin-3-yl)pyrimidine-5-carbonitrile]
Second: C[C@@H](Nc1ncc(C#N)c(-c2c[nH]c3ncc(C(F)(F)F)cc23)n1)c1ccc(N2CC[C@H](N(C)C)C2)nc1 [Compound I-290, 2-((R)-1-(6-((S)-3-(dimethylamino)pyrrolidin-1-yl)pyridin-3-yl)ethylamino)-4-(5-(trifluoromethyl)-1H-pyrrolo[2,3-b]pyridin-3-yl)pyrimidine-5-carbonitrile]
The Ki of the first is lower: < 3 nM for the first, 3 to 40 nM for the second.

CC(Nc1ncc(C#N)c(-c2c[nH]c3ncc(C(F)(F)F)cc23)n1)c1ccc(N2CCOCC2)cc1 (stereo not shown) [Compound I-125, 2-(1-(4-morpholinophenyl)ethylamino)-4-(5-(trifluoromethyl)-1H-pyrrolo[2,3-b]pyridin-3-yl)pyrimidine-5-carbonitrile] and CNC(=O)c1ccc([C@@H](C)Nc2ncc(C#N)c(-c3c[nH]c4ncc(C(F)(F)F)cc34)n2)cc1 [Compound I-163, 4-((1R)-1-(5-cyano-4-(5-(trifluoromethyl)-1H-pyrrolo[2,3-b]pyridin-3-yl)pyrimidin-2-ylamino)ethyl)-N-methylbenzamide] cannot be ordered by Ki: < 3 nM for the first, < 3 nM for the second.

Compared with CNC(=O)C(C)(C)Nc1ncc(C#N)c(-c2c[nH]c3ncc(Cl)cc23)n1 [IA-8, 2-(4-(5-chloro-1H-pyrrolo[2,3-b]pyridin-3-yl)-5-cyanopyrimidin-2-ylamino)-N,2-dimethylpropanamide], CNC(=O)c1cccc(Nc2cnc3[nH]cc(-c4nc(NC(C)C)ncc4C#N)c3c2)c1 [EG7, 3-(3-(5-cyano-2-(isopropylamino)pyrimidin-4-yl)-1H-pyrrolo[2,3-b]pyridin-5-ylamino)-N-methylbenzamide] is lower in Ki: > 40 nM for the first, 3 to 40 nM for the second.

CSc1ncc(C#N)c(-c2c[nH]c3ncc(C(F)(F)F)cc23)n1 [II-1, 2-(methylthio)-4-(5-(trifluoromethyl)-1H-pyrrolo[2,3-b]pyridin-3-yl)pyrimidine-5-carbonitrile] and CC(C)Sc1ncc(C#N)c(-c2c[nH]c3ncc(C(F)(F)F)cc23)n1 [II-12, 2-(isopropylthio)-4-(5-(trifluoromethyl)-1H-pyrrolo[2,3-b]pyridin-3-yl)pyrimidine-5-carbonitrile] cannot be ordered by Ki: > 40 nM for the first, > 40 nM for the second.

First: COc1cccc(Sc2ncc(C#N)c(-c3c[nH]c4ncc(C(F)(F)F)cc34)n2)c1 [II-11, 2-(3-methoxyphenylthio)-4-(5-(trifluoromethyl)-1H-pyrrolo[2,3-b]pyridin-3-yl)pyrimidine-5-carbonitrile]
Second: COc1ccc(CNc2ncc(C#N)c(-c3c[nH]c4ncc(C(F)(F)F)cc34)n2)cc1Cl [Compound I-94, 2-(3-chloro-4-methoxybenzylamino)-4-(5-(trifluoromethyl)-1H-pyrrolo[2,3-b]pyridin-3-yl)pyrimidine-5-carbonitrile]
The Ki of the first is higher: > 40 nM for the first, 3 to 40 nM for the second.

N#Cc1cnc(NC2CC2c2ccccc2)nc1-c1c[nH]c2ncc(C(F)(F)F)cc12 (stereo not shown) [Compound I-27, 2-(2-phenylcyclopropylamino)-4-(5-(trifluoromethyl)-1H-pyrrolo[2,3-b]pyridin-3-yl)pyrimidine-5-carbonitrile] and N#Cc1cnc(NC2CCc3ccccc32)nc1-c1c[nH]c2ncc(C(F)(F)F)cc12 (stereo not shown) [Compound I-38, 2-(2,3-dihydro-1H-inden-1-ylamino)-4-(5-(trifluoromethyl)-1H-pyrrolo[2,3-b]pyridin-3-yl)pyrimidine-5-carbonitrile] cannot be ordered by Ki: > 40 nM for the first, > 40 nM for the second.

Compared with C[C@@H](Nc1ncc(C#N)c(-c2c[nH]c3ncc(C(F)(F)F)cc23)n1)c1ccc(NCCN2CCCC2)nc1 [Compound I-223, 2-((R)-1-(6-(2-(pyrrolidin-1-yl)ethylamino)pyridin-3-yl)ethylamino)-4-(5-(trifluoromethyl)-1H-pyrrolo[2,3-b]pyridin-3-yl)pyrimidine-5-carbonitrile], C[C@@H](Nc1ncc(C#N)c(-c2c[nH]c3ncc(C(F)(F)F)cc23)n1)c1ccc(N(C)C2CCN(C)C2)nc1 (stereo partly drawn) [Compound I-295, 2-((1R)-1-(6-(methyl(1-methylpyrrolidin-3-yl)amino)pyridin-3-yl)ethylamino)-4-(5-(trifluoromethyl)-1H-pyrrolo[2,3-b]pyridin-3-yl)pyrimidine-5-carbonitrile] is lower in Ki: 3 to 40 nM for the first, < 3 nM for the second. The second binds more tightly here.

CN(Cc1ccccc1)c1ncc(C#N)c(-c2c[nH]c3ncc(C(F)(F)F)cc23)n1 [Compound I-8, 2-(benzyl(methyl)amino)-4-(5-(trifluoromethyl)-1H-pyrrolo[2,3-b]pyridin-3-yl)pyrimidine-5-carbonitrile] and N#Cc1cnc(NCc2ccc(C(F)(F)F)nc2)nc1-c1c[nH]c2ncc(C(F)(F)F)cc12 [Compound I-32, 4-(5-(trifluoromethyl)-1H-pyrrolo[2,3-b]pyridin-3-yl)-2-((6-(trifluoromethyl)pyridin-3-yl)methylamino)pyrimidine-5-carbonitrile] cannot be ordered by Ki: > 40 nM for the first, > 40 nM for the second.

Compared with C[C@@H](Nc1ncc(C#N)c(-c2c[nH]c3ncc(C(F)(F)F)cc23)n1)[C@H]1CC[C@H](NS(C)(=O)=O)CC1 (single isomer, unassigned) [Compound I-202], C[C@@H](Nc1ncc(C#N)c(-c2c[nH]c3ncc(C(F)(F)F)cc23)n1)c1ccc(N2CCC(N(C)C)CC2)nc1 [Compound I-294, 2-((R)-1-(6-(4-(dimethylamino)piperidin-1-yl)pyridin-3-yl)ethylamino)-4-(5-(trifluoromethyl)-1H-pyrrolo[2,3-b]pyridin-3-yl)pyrimidine-5-carbonitrile] is higher in Ki: < 3 nM for the first, 3 to 40 nM for the second. The first binds more tightly here.

CNCCCN(C)c1ccc([C@@H](C)Nc2ncc(C#N)c(-c3c[nH]c4ncc(C(F)(F)F)cc34)n2)cn1 [Compound I-289, 2-((R)-1-(6-(methyl(3-(methylamino)propyl)amino)pyridin-3-yl)ethylamino)-4-(5-(trifluoromethyl)-1H-pyrrolo[2,3-b]pyridin-3-yl)pyrimidine-5-carbonitrile] and COC(=O)Nc1ccc([C@@H](C)Nc2ncc(C#N)c(-c3c[nH]c4ncc(C(F)(F)F)cc34)n2)cc1 [Compound I-141, methyl 4-((1R)-1-(5-cyano-4-(5-(trifluoromethyl)-1H-pyrrolo[2,3-b]pyridin-3-yl)pyrimidin-2-ylamino)ethyl)phenylcarbamate] cannot be ordered by Ki: < 3 nM for the first, < 3 nM for the second.
